Assay results taken from patent US4138423A, “N-dithio carbamoyl oximes” (priority 1976, dated 1979).
Values after ≈ are worked out from the molar mass of the structure shown.

Key:
[1] = test system: house flies; assay: Fly Bait Test; conditions: Musca domestica, read-out: Fly LD50
Procedure: The test concentrations in parts per million by weight employed in the tests described hereinbelow were obtained by appropriate dilutions of the stock suspension with water. The test procedures were as follows:
Four to six day old adult house flies (Musca domestica, L.) reared according to the specifications of the Chemical Specialities Manufacturing Association (Blue Book, McNair-Dorland Co., N.Y. 1954; pages 243-244, 261) under controlled conditions of 80±5° F. and 50±5 percent relative humidity, were the test insects. The flies were immobilized by anesthetizing with carbon dioxide and twenty five immobilized individuals,males and females, were transferred to a cage consisting of a standard food strainer about five inches in diameter which was inverted over a wrapping-paper-covered surface. […] Ten milliliters of the test formulation were added to a souffle cup containing a one-inch square of an absorbent cotton pad. This bait cup was introduced and centered on the blotting paper under the food strainer prior to admitting the anesthetized flies. The caged flies were allowed to feed on the bait for twenty four hours, at a temperature of 80±5° F. and the relative humidity of 50±5 percent.
(§3) The test procedures described above were employed in these experiments in order to determine the LD50 (number of parts per million of active ingredients required to achieve fifty percent mortality of the insects tested) for each of the compositions tested.

[2] = peroral toxicity to mammals (rat); conditions: in vivo, po, peroral, Table I, read-out: A.O. Rat. LD50
Procedure: (§1) Certain of these compositions were also evaluated to determine their peroral toxicity to mammals. The animal selected for this experiment was the rat. The test results obtained are expressed in terms of the number of milligrams of compositions per kilogram of weight of the animal required to achieve a mortality rate of 50 percent (LD50).

[3] = test system: southern armyworm; assay: Southern Armyworm Leaf Spray Test; conditions: Spodoptera eridania, read-out: Armyworm LD50
Procedure: The thus-prepared stock suspension contained 0.5 percent by weight of compound. The test concentrations in parts per million by weight employed in the tests described hereinbelow were obtained by appropriate dilutions of the stock suspension with water. The test procedures were as follows:
Larvae of the southern armyworm (Prodenia eridania, (Cram.)), reared on Tendergreen bean plants at a temperature of 80±5° F. and a relative humidity of 50±5 percent, constituted the test insects.
Potted Tendergreen bean plants of standard height and age were placed on a revolving turntable and sprayed with 100-110 milliliters of test compound formulation by use of a DeVilbiss spray gun set at 10 psig air pressure. This application, which lasted 25 seconds, was sufficient to wet plants to run-off. As a control, 100-110 milliliters of a water-acetone-emulsifier solution containing no test compound were also sprayed on infested plants. When dry, the paired leaves were separated and each one was placed in a 9 centimeter Petri dish lined with moistened filter paper. Five randomly selected larvae were introduced into each dish and the dishes were closed. The closed dishes were labeled and held at 80-85° F. for three days. Although the larvae could easily consume the whole leaf within twenty-four hours, no more food was added. Larvae which were unable to move the length of the body, even upon stimulation by prodding, were considered dead. Percent mortality was recorded for various concentration levels.
as §3

[4] = test system: Mexican bean beetle; assay: Mexican Bean Beetle Leaf Spray Test; conditions: Epilachna varivestis, read-out: Beetle LD50
Procedure: (§2) The test procedures were as follows:
The closed dishes were labeled and held at a temperature of 80±5° F. for three days. Although the larvae could easily consume the leaf within 24 to 48 hours, no more food was added.

[5] = test system: bean aphid; assay: whole plant or invertebrate; conditions: foliar, read-out: Aphid LD50
[6] = test system: two-spotted mite; assay: Mite Foliage Spray Test; conditions: Tetranychus urticae, foliar, read-out: Mite LD50
Procedure: as §2
Adults and nymphal stages of the two-spotted mite (Tetranychus urticae Koch), reared on Tendergreen bean plants at 80±5° percent relative humidity, were the test organisms. Infested leaves from a stock culture were placed on the primary leaves of two bean plants six to eight inches in height, growing in a two- and-a-half inch clay pot. 150-200 mites, a sufficient number for testing, transferred from the excised leaves to the fresh plants in a period of twenty four hours. Following the twenty four hour transfer period, the excised leaves were removed from the infested plants. […] The sprayed plants were held at 80±5 percent relative humidity for six days, after which a mortality count of motile forms was made. […] Any individual which was capable of locomotion upon prodding was considered living.

[7] = test system: cotton, tomatoes, beans and corn; assay: phytotoxicity to crops; conditions: compared with N-methyl carbamate compounds
[8] = test system: rat; assay: peroral toxicity to mammals (rat); conditions: in vivo, po
Procedure: as §1

CSC(C)=NOC(=O)N(C)SSC(C)(C)C [Example I, 1-Methylthioacetaldehyde O-[N-methyl-N-(2-methyl-2-propanethiosulfenyl)carbamoyl]oxime]
LC50 [1]: 4 µg/mL (≈ 14.2 µM)
LD50 [2]: 143 mg/kg
LC50 [3]: 6 µg/mL (≈ 21.2 µM)
LC50 [4]: 40 µg/mL (≈ 142 µM)

CSC(C)=NOC(=O)N(C)SSC(C)(C)C [Example II (Table II)]
LC50 [5]: 1.3 µg/mL (≈ 4.6 µM)
LC50 [6]: > 500 µg/mL

CSC(C)=NOC(=O)N(C)SSC1CCCCC1 [Example II, 1-Methylthioacetaldehyde O-[N-methyl-N-(cyclohexanethiosulfenyl)carbamoyl]oxime]
LD50 [2]: 101 mg/kg

CC(=NOC(=O)N(C)SSC(C)(C)C)SC(C)C [Example III (Table II)]
LC50 [5]: 9 µg/mL (≈ 29 µM)
LC50 [6]: 125 µg/mL (≈ 403 µM)

CSC(C)=NOC(=O)N(C)SSc1ccc(Cl)cc1 [Example III, 1-Methylthioacetaldehyde O-[N-methyl-N-(4-chlorophenylthiosulfenyl)carbamoyl]oxime]
LD50 [2]: 160 mg/kg

CC(=NOC(=O)N(C)SSC(C)C)SCCC#N [IV]
LD50 [2]: 14.1 mg/kg

CSC(C)=NOC(=O)N(C)SSc1ccccc1 [IX, 1-Methylthioacetaldehyde O-[N-methyl-N-(phenylthiosulfenyl)carbamoyl]oxime]
LD50 [2]: 143 mg/kg

CNC(=O)ON=C(C)SC [Methomyl, reference compound]
LC50 [1]: 4 µg/mL (≈ 24.7 µM)
LC50 [6]: > 500 µg/mL
phytotoxicity to important economic crops [7]: highly susceptible to phytotoxic injury
Rat LD50 [8]: 48 mg/kg
LC50 [3]: 11 µg/mL (≈ 67.8 µM)
LC50 [4]: 70 µg/mL (≈ 432 µM)

CSC(C)=NOC(=O)N(C)SSc1ccc(C)cc1 [X, 1-Methylthioacetaldehyde O-[N-methyl-N-(4-methylphenylthiosulfenyl)carbamoyl]oxime]
LD50 [2]: 63.5 mg/kg

CC(=NOC(=O)N(C)SSC(C)(C)C)SCCC#N [XIII]
LD50 [2]: 10 mg/kg

CC(=NOC(=O)N(C)SSC(C)(C)C)SC(C)C [XII]
LC50 [1]: 42 µg/mL (≈ 135 µM)
LD50 [2]: 30.8 mg/kg
LC50 [3]: 35 µg/mL (≈ 113 µM)
LC50 [4]: 31 µg/mL (≈ 99.8 µM)

CSC(C)(C)C=NOC(=O)N(C)SSc1ccc(Cl)cc1 [XIV]
LD50 [2]: 2 mg/kg

CSC(C)=NOC(=O)N(C)SSc1ccc(C(C)(C)C)cc1 [XI]
LD50 [2]: 180 mg/kg

CSC(C)=NOC(=O)N(C)SSC(C)C [XV]
LD50 [2]: 113 mg/kg
